Read-outs that look alike come from different tables or passages of the source. Marks after values point to notes of the source that are not given here.
Legend:
[1] = parameters: method as in REACH dossier; settings: aqueous; ref REACH dossier; cited from earlier work
[2] = parameters: method as in Perrin 1965, SRC, REACH, Perrin 1972, Hall 1957; settings: ref Perrin 1965, SRC, REACH, Perrin 1972, Hall 1957, cited from earlier work; for pKa, experimental reference data: 25 °C; for pKa used (selected value): selected per amine type, weighted from simulated and experimental analogue data
[3] = Bioconcentration (BCF) experiment based on OECD 305, aqueous exposure to surfactant mixtures; assay type: in vivo, Oncorhynchus mykiss; settings: whole fish, read-out: measured total elimination rate constant (kT) (converted)
Description: (§1) Juvenile rainbow trout were purchased from EM lax in Västervik, Sweden, and held in the aquaria facility for one month prior to starting the experiment on August 28, 2018. Ethical approval for the experiments was obtained from Stockholm’s djurförsöksetiska nämnd (decision 9967–2017). The experiment was conducted in six 350 L fiberglass aquaria with a water renewal rate of 1.5 L min^–1 corresponding to a turnover time of […]. The water temperature and the air temperature in the aquaria room were 10 °C. The lighting was dim and programmed on a 12 h light/12 h dark cycle.
(§2) Three BCF experiments were conducted, one each for MIX1 and MIX2 at pH ∼7.6 (denoted MIX1 and MIX2 in the following), and one for MIX1 at pH ∼6.2 (MIX1pH). Each experiment consisted of a 14 d exposure phase and a 28 d depuration phase. There were also two control aquaria where unexposed fish were kept, one at pH 7.6 and one at pH 6.2. For the pH 6.2 aquaria, a 20% v:v formic acid solution was pumped into a premixing basin where it was mixed with the inflowing water before entering the aquarium. pH sensors monitored pH in the premixing basin and the aquarium. The pH for the MIX1 and MIX2 experiments was governed by the pH of the water supply. Water samples were collected at 8 time points during each experiment for the determination of pH and alkalinity. Water samples were collected daily during the exposure phase for determination of total organic carbon (TOC), which was measured with NDIR detection after acidification, purging and high-temperature catalytic combustion (Shimadzu TOC-L).
(§3) For the exposure phase, a methanol solution of the test chemical mixture was infused continuously at 4.0 μL min^–1 into the water inflow of the aquarium using a syringe pump. The target concentrations of the chemicals in water ranged from 2.5 to 100 μg L^–1 (Table 1). They were selected to be as low as possible to minimize the risk of toxic effects while still being high enough to enable collection of high-quality data, building on the results of the tissue distribution experiment.[32] The syringe pump was started in an aquarium containing no fish. After 16 h to allow the concentrations to stabilize, ∼80 rainbow trout were transferred to the aquarium. Over the following 14 d water samples were collected and fish were sacrificed according to the schedule in Table S5. The remaining fish were then transferred to a second aquarium that received water without chemical addition. Over the following 28 d further water samples were collected and fish were sacrificed (Table S5).
(§4) At each fish sampling, 4–6 fish were sacrificed. Fish were also sampled periodically from the control aquaria. Following stunning and severance of the spinal cord, the fish were placed in a polyethylene bag, weighed, and immediately frozen at −20 °C. The median fish weight at sacrifice was 10.94 g, with a 25th and 75th percentile of 8.43 and 13.58 g, respectively.
(§5) Three fish from each time point were prioritized for analysis based on proximity to the median fish weight. Each fish was semithawed, cut into 3–4 pieces, and homogenized with an Ultra-Turrax device. 150 mg of the homogenate was transferred to a preweighed 13 mL polypropylene tube, centrifuged to a pellet, and weighed. 50 μL of methanol was added and the prepared aliquot was frozen. For extraction internal standard solution (isotope labeled standards of Q10 (D21), Q14 (D29), and P16 (D33)), 3 mL of methanol and 3 steel balls (3.2 mm diameter) were added to the prepared aliquot. This mixture was mixed in a bullet blender for 1 min, and then placed in an ultrasound bath at 50 °C for 60 min. Following centrifugation, the supernatant was decanted and the extraction was repeated. The extracts were combined and a portion corresponding to 25–50 mg homogenate was cleaned up on a weak cationic exchange SPE column (WCX, 60 mg) as described elsewhere.[32] […]

[4] = tested on: juvenile rainbow trout (Oncorhynchus mykiss); assay: as above; assay type: in vivo; settings: for factor by which BCF is lower at pH 6.2 than at pH 7.6: MIX1 vs MIX1pH; for uptake rate constant (kU): 14 d exposure, 28 d depuration; for uptake rate constant (kU) / BCF (kU/kT): whole fish
Description: as §1, §2, §3, §4, §5

gills of rainbow trout = assay: Mechanistic one-box mass balance model of gill uptake and elimination; settings: for predicted gill elimination rate constant eq 1 (k2): from measured kU and modeled αW, αB, DFW
Text: To gain more mechanistic insight into the results, we formulated a simple one-box mass balance model of chemical bioconcentration in fish that considered diffusive uptake and elimination across the gills as well as biotransformation.[33] The flow of water across the gills and the flow of blood through the gills were modeled as perfusion limited resistances that constrain gill uptake and elimination. […] Consequently, these resistances are unknowns. Ion trapping effects caused by differences in pH between water at the gill surface and blood in the gills are considered, drawing on previous work on the uptake and elimination of ionizable organic chemicals across the gills of rainbow trout.[22],[23] Partitioning of the chemical from the dissolved phase into blood and into whole fish was calculated as the product of the membrane lipid–water distribution ratio (DMLW,T, including partitioning of both the neutral and the charged forms) and the fraction of membrane lipid in blood and whole fish. A detailed description of the model is provided in the SI (Text S3).
The contribution of the water perfusion and blood perfusion resistances were compared with the overall resistance for transport across the gills from water to blood (RW→B), which was calculated from the measured kU according to equation S4.3. […] For all of the other chemicals the blood resistance is insignificant compared to the overall resistance.
The rate constant for elimination across the gills, k2, can be defined as follows: [drawing 1] 1 where αB and αW are the neutral fractions of the chemical in the blood and in the water at the gill surface, respectively, and DFW is the fish-water distribution ratio of the chemical at the pH of blood (8.1) (see Text S3). Using the measured kU and the values of αW, αB, and DFW estimated for the model, k2 was calculated (Table 2).

[5] = ref Timmer and Droge (2017); cited from earlier work
[6] = Membrane-water partition coefficient of the charged form (DMLW,C); assay type: physicochemical; settings: extrapolated from Timmer and Droge (2017)
Description: Table S3: Test chemical properties
Abbr. pKa$ Log DOC§ Log DMLW,C# SMILES
$ pKa values derived/reported for different alkylamine type analogues. The selected value is expected to be independent of chain length for all longer chain homologues, using a weighted value obtained from the different sources with more focus on experimental data:
Algorithm / simulated data Experimental reference data (25 °C)
Chem ACD/ COSMO- selected
(https://echa.europa.eu/registration-dossier/-

CCCCCCCC/C=C/CCCCCCCCN(CCO)CCO [2-[(2-hydroxyethyl)[(9E)-octadec-9-en-1-yl]amino]ethan-1-ol]
SURFACE TENSION [1]: 27 mN/m

CCCCCCCCCCCCCCCCCCN(C)C [dimethyl(octadecyl)amine]
SURFACE TENSION [1]: 32.2 mN/m

CCCCCCCCCCCCCCCCN(C)C [N,N-dimethylhexadecan-1-amine]
SURFACE TENSION [1]: 30.5 mN/m

CCCCCCN [hexylamine, reference compound]
pKa, experimental reference data [2]: 10.64

CCCCCCCCCCCCN [P12, Dodecylamine]
k el ([3]; pH 6.2 (MIX1pH)): 1.42e-05 s⁻¹ | k el ([3]; pH 7.6 (MIX1, MIX2)): 2.25e-06 s⁻¹ | factor by which BCF is lower at pH 6.2 than at pH 7.6 [4]: 34 | uptake rate constant (kU) ([4]; pH 6.2 (MIX1pH)): 0.36 L kg^–1 h^–1 | BCF (kU/kT) ([4]; pH 6.2 (MIX1pH)): 7.1 L kg^–1 | uptake rate constant (kU) ([4]; pH 7.6 (MIX1, MIX2), 10 °C): 2.0 L kg^–1 h^–1 | BCF (kU/kT) ([4]; pH 7.6 (MIX1, MIX2)): 250 L kg^–1 | factor by which k2 was less than kT (gills of rainbow trout): ~10 | pH dependency of k2 (factor between pH 7.6 and pH 6.2) (gills of rainbow trout; MIX1 vs MIX1pH): 2.5 | Uptake resistance (gills of rainbow trout; lower pH (6.2), value printed in Figure 3): 744 h m^-1 | k2/kT (gills of rainbow trout; pH 6.2 (MIX1pH)): 0.04 | predicted gill elimination rate constant eq 1 (k2) (gills of rainbow trout; pH 6.2 (MIX1pH)): 0.0022 h^–1 | k2/kT (gills of rainbow trout; pH 7.6 (MIX1, MIX2)): 0.11 | predicted gill elimination rate constant eq 1 (k2) (gills of rainbow trout; pH 7.6 (MIX1, MIX2)): 0.0009 h^–1 | Log DMLW,C (membrane-water partition coefficient of the charged form) [5]: 5.58

CCCCCCCCCCCCCN [P13, Tridecylamine]
k el ([3]; pH 7.6 (MIX1, MIX2)): 9.44e-07 s⁻¹ | uptake rate constant (kU) ([4]; pH 7.6 (MIX1, MIX2), 10 °C): 4.8 L kg^–1 h^–1 | BCF (kU/kT) ([4]; pH 7.6 (MIX1, MIX2)): 1390 L kg^–1 | factor by which k2 was less than kT (gills of rainbow trout): ~10 | k2/kT (gills of rainbow trout; pH 7.6 (MIX1, MIX2)): 0.17 | predicted gill elimination rate constant eq 1 (k2) (gills of rainbow trout; pH 7.6 (MIX1, MIX2)): 0.0006 h^–1 | Log DMLW,C (membrane-water partition coefficient of the charged form) [6]: 6.16 | pKa used (selected value) [2]: C13NH2 (10.6)

CCCN(C)C [N,N-dimethylpropylamine, reference compound]
pKa, experimental reference data [2]: 9.99

CCCCCCCCCN [P9, Nonylamine]
factor by which BCF is lower at pH 6.2 than at pH 7.6 [4]: 22 | BCF (kU/kT) ([4]; pH 6.2 (MIX1pH)): 0.1 ^b L kg^–1 | BCF (kU/kT) ([4]; pH 7.6 (MIX1, MIX2)): 2.2 L kg^–1 | pKa used (selected value) [2]: C9NH2 (10.6) | Log DMLW,C (membrane-water partition coefficient of the charged form) [5]: 3.72

CCCCNC [N-methylbutylamine, reference compound]
pKa, experimental reference data [2]: 10.9

CCCCCCCCCCCCCC[N+](C)(C)CCCCCCCCCCCCCC.[Cl-] [N,N-dimethyl-N-tetradecyltetradecan-1-aminium chloride]
SURFACE TENSION [1]: 28 mN/m
